# Laboratory results: ChEMBL document CHEMBL4483862, “Open-source discovery of chemical leads for next-generation chemoprotective antimalarials” (2018)
# pIC50: −log10 of the molar value.
# Tested on: Plasmodium berghei
# Assay: Luciferase/luciferin-expressing antifolate-resistant parasites were used to infect a culture of HepG2 cells that were pre-incubated with compounds. Infected hepatocytes emit light due to the luciferase reaction. Assay results are presented as the percent inhibition of light emission compared to control. […]
# Format: functional
# Settings: sporozoite; for IC90: read-out: LUCIFERASE INFECTION ASSAY - IC90
SMILES,IC90,other results
NC(=O)C(C(=O)/C=C/c1ccc(Cl)cc1)=C1SCCS1,7.51 µM,"pIC50 (HEPG2TOX_HILL_SLOPE 2.58, HEPG2TOX_R_SQUARED 0.837, PBLUC_HILL_SLOPE 4.23, PBLUC_R_SQUARED 0.508, read-out: LUCIFERASE INFECTION ASSAY - IC50): 5.35"
Cc1ccc(CSc2nccc(-c3c(C)nc4ccccn34)n2)cc1,> 9.53 µM,"pIC50 (HEPG2TOX_HILL_SLOPE 2.56, HEPG2TOX_R_SQUARED 0.969, PBLUC_HILL_SLOPE 4.1, PBLUC_R_SQUARED 0.204, read-out: LUCIFERASE INFECTION ASSAY - IC50): 5.21"
N#C/C(=N/Nc1ccc(OC(F)(F)F)cc1)C(N)=S,4.35 µM,"pIC50 (HEPG2TOX_HILL_SLOPE 2.59, HEPG2TOX_R_SQUARED 0.943, PBLUC_HILL_SLOPE 11.1, PBLUC_R_SQUARED 0.624, read-out: LUCIFERASE INFECTION ASSAY - IC50): 5.45"
Oc1c(-c2cc(C(F)(F)F)[nH]n2)ccc2ccccc12,4.29 µM,"pIC50 (HEPG2TOX_HILL_SLOPE 2.58, HEPG2TOX_R_SQUARED 0.339, PBLUC_HILL_SLOPE 10.9, PBLUC_R_SQUARED 0.613, read-out: LUCIFERASE INFECTION ASSAY - IC50): 5.45"
COc1cccc(-c2ccc3ncc(-c4ccc5c(c4)OCO5)n3n2)c1,9 µM,"pIC50 (HEPG2TOX_HILL_SLOPE 2.64, HEPG2TOX_R_SQUARED 0.763, PBLUC_HILL_SLOPE 3.7, PBLUC_R_SQUARED 0.498, read-out: LUCIFERASE INFECTION ASSAY - IC50): 5.30"
CC1CCN(Cc2csc(NC(=O)c3ccc(SCc4cscn4)cc3)n2)CC1,9.76 µM,"pIC50 (HEPG2TOX_HILL_SLOPE 2.61, HEPG2TOX_R_SQUARED 0.966, PBLUC_HILL_SLOPE 9.48, PBLUC_R_SQUARED 0.381, read-out: LUCIFERASE INFECTION ASSAY - IC50): 5.11"
C=CCN(c1ccccc1OC)S(=O)(=O)c1ccc(Cl)c(C(=O)Nc2nc3ccccc3[nH]2)c1,> 10 µM,"pIC50 (HEPG2TOX_HILL_SLOPE 2.58, HEPG2TOX_R_SQUARED 0.695, PBLUC_HILL_SLOPE 1.17, PBLUC_R_SQUARED 0.361, read-out: LUCIFERASE INFECTION ASSAY - IC50): 5.65"
Cc1ccc(-c2nn(-c3ncc(Cl)cc3Cl)c(=O)c3ccccc23)cc1,> 10 µM,"pIC50 (HEPG2TOX_HILL_SLOPE 2.58, HEPG2TOX_R_SQUARED 0.712, read-out: LUCIFERASE INFECTION ASSAY - IC50): < 5.00"
O=C(NNC(=O)c1cnc2ccccc2n1)c1ccccc1,9.09 µM,"pIC50 (HEPG2TOX_HILL_SLOPE 2.59, HEPG2TOX_R_SQUARED 0.855, PBLUC_HILL_SLOPE 4.42, PBLUC_R_SQUARED 0.625, read-out: LUCIFERASE INFECTION ASSAY - IC50): 5.26"
COC(=O)c1ccc(CNC(=O)NCCN2c3ccccc3CCC2C)cc1 (configuration not stated),3.88 µM,"pIC50 (HEPG2TOX_HILL_SLOPE 2.63, HEPG2TOX_R_SQUARED 0.63, PBLUC_HILL_SLOPE 12, PBLUC_R_SQUARED 0.668, read-out: LUCIFERASE INFECTION ASSAY - IC50): 5.49"
Cc1ccc(-n2nnnc2SCc2c(F)cccc2Cl)c(C)c1,> 9.46 µM,"pIC50 (HEPG2TOX_HILL_SLOPE 2.61, HEPG2TOX_R_SQUARED 0.917, PBLUC_HILL_SLOPE 6.38, PBLUC_R_SQUARED 0.299, read-out: LUCIFERASE INFECTION ASSAY - IC50): 5.05"
Cc1ccc(S(=O)(=O)NN(C)c2nc3ccccc3nc2C(F)(F)F)cc1,3.01 µM,"pIC50 (HEPG2TOX_HILL_SLOPE 2.57, HEPG2TOX_R_SQUARED 0.987, PBLUC_HILL_SLOPE 18.2, PBLUC_R_SQUARED 0.483, read-out: LUCIFERASE INFECTION ASSAY - IC50): 5.58"
Fc1ccc(-c2csc3ncnc(Sc4nnnn4-c4ccccc4)c23)cc1,3.53 µM,"pIC50 (HEPG2TOX_HILL_SLOPE 2.6, HEPG2TOX_R_SQUARED 0.978, PBLUC_HILL_SLOPE 15.6, PBLUC_R_SQUARED 0.498, read-out: LUCIFERASE INFECTION ASSAY - IC50): 5.51"
O=C(C1=NNCC1c1ccccc1)c1cc2ccccc2c2ccccc12 (configuration not stated),> 9.42 µM,"pIC50 (HEPG2TOX_HILL_SLOPE 2.61, HEPG2TOX_R_SQUARED 0.965, PBLUC_HILL_SLOPE 1.24, PBLUC_R_SQUARED 0.535, read-out: LUCIFERASE INFECTION ASSAY - IC50): 5.50"
O=C(c1c[nH]c(-c2ccnc(N3CCCC3)c2)c1)c1ccccc1O,7.71 µM,"pIC50 (HEPG2TOX_HILL_SLOPE 2.58, 1.58, HEPG2TOX_R_SQUARED 0.907, 0.987, PBLUC_HILL_SLOPE 3.48, 1.53, PBLUC_R_SQUARED 0.289, 0.786, read-out: LUCIFERASE INFECTION ASSAY - IC50): 5.51"
Cc1ccccc1-c1cn2c(-c3cccc(O)c3)cnc2cn1,8.68 µM,"pIC50 (HEPG2TOX_HILL_SLOPE 2.6, HEPG2TOX_R_SQUARED 0.936, PBLUC_HILL_SLOPE 3.74, PBLUC_R_SQUARED 0.417, read-out: LUCIFERASE INFECTION ASSAY - IC50): 5.32"

SMILES,IC90,other results
O=C(COC(=O)c1cc(-c2ccccc2)c(N2CCOCC2)s1)NCc1cccs1,7.35 µM,"pIC50 (HEPG2TOX_HILL_SLOPE 2.63, HEPG2TOX_R_SQUARED 0.904, PBLUC_HILL_SLOPE 1.69, PBLUC_R_SQUARED 0.47, read-out: LUCIFERASE INFECTION ASSAY - IC50): 5.70"
CCC(C)NC(=O)c1c(NC(=O)c2ccc(F)c(Cl)c2)nc2ccc(C)cn12 (configuration not stated),5.96 µM,"pIC50 (HEPG2TOX_HILL_SLOPE 2.61, HEPG2TOX_R_SQUARED 0.962, PBLUC_HILL_SLOPE 2.74, PBLUC_R_SQUARED 0.471, read-out: LUCIFERASE INFECTION ASSAY - IC50): 5.57"
COc1ccc(CN2CCN(c3ncc(C(=O)Nc4ccc5c(c4)OCO5)s3)C2=O)cc1,4.14 µM,"pIC50 (HEPG2TOX_HILL_SLOPE 2.58, HEPG2TOX_R_SQUARED 0.97, PBLUC_HILL_SLOPE 17.4, PBLUC_R_SQUARED 0.0851, read-out: LUCIFERASE INFECTION ASSAY - IC50): 5.44"
O=C1C(=O)N(CN2CCc3sccc3C2c2ccccc2)c2ccc(F)cc21 (configuration not stated),2.51 µM,"pIC50 (HEPG2TOX_HILL_SLOPE 2.62, HEPG2TOX_R_SQUARED 0.103, PBLUC_HILL_SLOPE 2.21, PBLUC_R_SQUARED 0.632, read-out: LUCIFERASE INFECTION ASSAY - IC50): 6.03"
C/C(=N\NC(=S)Nc1ccc(Cl)cc1)c1ccn[nH]1,4.51 µM,"pIC50 (HEPG2TOX_HILL_SLOPE 2.63, HEPG2TOX_R_SQUARED 0.844, PBLUC_HILL_SLOPE 3.05, PBLUC_R_SQUARED 0.682, read-out: LUCIFERASE INFECTION ASSAY - IC50): 5.66"
Cc1onc(-c2ccc(Cl)cc2Cl)c1-c1csc(Nc2cc(C(F)(F)F)cc(C(F)(F)F)c2)n1,2.73 µM,"pIC50 (HEPG2TOX_HILL_SLOPE 2.62, HEPG2TOX_R_SQUARED 0.945, PBLUC_HILL_SLOPE 2.66, PBLUC_R_SQUARED 0.706, read-out: LUCIFERASE INFECTION ASSAY - IC50): 5.92"
COc1ccc(-c2csc3ncnc(NCc4ccc(-n5ccnc5)nc4)c23)cc1,10 µM,"pIC50 (HEPG2TOX_HILL_SLOPE 2.62, HEPG2TOX_R_SQUARED 0.957, PBLUC_HILL_SLOPE 10.9, PBLUC_R_SQUARED 0.671, read-out: LUCIFERASE INFECTION ASSAY - IC50): 5.09"
O=S(=O)(Nc1cc(C(F)(F)F)cc(C(F)(F)F)c1)c1cc(Cl)ccc1Cl,> 7.53 µM,"pIC50 (HEPG2TOX_HILL_SLOPE 2.59, HEPG2TOX_R_SQUARED 0.793, PBLUC_HILL_SLOPE 6.41, PBLUC_R_SQUARED 0.152, read-out: LUCIFERASE INFECTION ASSAY - IC50): 5.21"
COc1ccc(CNc2ccc3ncc(-c4ccc(OC)c(OC)c4)n3n2)cc1,4.78 µM,"pIC50 (HEPG2TOX_HILL_SLOPE 2.6, HEPG2TOX_R_SQUARED 0.69, PBLUC_HILL_SLOPE 12.3, PBLUC_R_SQUARED 0.459, read-out: LUCIFERASE INFECTION ASSAY - IC50): 5.40"
c1ccc(-n2ncc3c(N4CCCC4c4ccc5c(c4)OCCO5)ncnc32)cc1 (configuration not stated),> 10 µM,"pIC50 (HEPG2TOX_HILL_SLOPE 2.6, HEPG2TOX_R_SQUARED 0.193, PBLUC_HILL_SLOPE 3.44, PBLUC_R_SQUARED 0.735, read-out: LUCIFERASE INFECTION ASSAY - IC50): 5.14"
O=C(Nc1ccc(-c2nc3ccccc3[nH]2)cc1)c1cccc(S(=O)(=O)NC2CC2)c1,3 µM,"pIC50 (HEPG2TOX_HILL_SLOPE 2.58, HEPG2TOX_R_SQUARED 0.64, PBLUC_HILL_SLOPE 5.30, 5.83, PBLUC_R_SQUARED 0.508, 0.438, read-out: LUCIFERASE INFECTION ASSAY - IC50): 5.69"
CCCCc1ccc2nc(NC(=O)c3cccnc3-n3cncn3)sc2c1,> 10 µM,"pIC50 (HEPG2TOX_HILL_SLOPE 2.58, HEPG2TOX_R_SQUARED 0.943, PBLUC_HILL_SLOPE 1.45, PBLUC_R_SQUARED 0.435, read-out: LUCIFERASE INFECTION ASSAY - IC50): 5.40"
CN(C)c1nc(N)nc(CSc2nc(N)c3c4c(sc3n2)CCCC4)n1,> 10 µM,"pIC50 (HEPG2TOX_HILL_SLOPE 2.63, HEPG2TOX_R_SQUARED 0.627, PBLUC_HILL_SLOPE 2.91, PBLUC_R_SQUARED 0.214, read-out: LUCIFERASE INFECTION ASSAY - IC50): 5.04"
CCOC(=O)c1c(C)[nH]c(C(=O)COC(=O)Cn2[nH]c(=O)c3ccccc3c2=O)c1C,> 10 µM,"pIC50 (HEPG2TOX_HILL_SLOPE 2.60, 1.21, HEPG2TOX_R_SQUARED 0.645, 0.988, read-out: LUCIFERASE INFECTION ASSAY - IC50): < 5.00"
c1cncc(CCNc2nccn3c(-c4ccc5ccccc5c4)cnc23)c1,5.14 µM,"pIC50 (HEPG2TOX_HILL_SLOPE 2.6, HEPG2TOX_R_SQUARED 0.953, PBLUC_HILL_SLOPE 75.6, PBLUC_R_SQUARED 0.403, read-out: LUCIFERASE INFECTION ASSAY - IC50): 5.30"
